Like-named read-outs stand apart in the source and are kept apart here.
Assays:
Assay in all cases: KinomeScan kinase panel, single concentration 10 µM
Type in all cases: binding
[1] = target: T1, KinomeScan kinase panel (Homo sapiens, UniProt O14976); settings: GAK, 10 µM; read-out: score (%)
T1 construct: purchased DiscoveRx (KinomeScan)
T1 sequence (O14976 1-1311): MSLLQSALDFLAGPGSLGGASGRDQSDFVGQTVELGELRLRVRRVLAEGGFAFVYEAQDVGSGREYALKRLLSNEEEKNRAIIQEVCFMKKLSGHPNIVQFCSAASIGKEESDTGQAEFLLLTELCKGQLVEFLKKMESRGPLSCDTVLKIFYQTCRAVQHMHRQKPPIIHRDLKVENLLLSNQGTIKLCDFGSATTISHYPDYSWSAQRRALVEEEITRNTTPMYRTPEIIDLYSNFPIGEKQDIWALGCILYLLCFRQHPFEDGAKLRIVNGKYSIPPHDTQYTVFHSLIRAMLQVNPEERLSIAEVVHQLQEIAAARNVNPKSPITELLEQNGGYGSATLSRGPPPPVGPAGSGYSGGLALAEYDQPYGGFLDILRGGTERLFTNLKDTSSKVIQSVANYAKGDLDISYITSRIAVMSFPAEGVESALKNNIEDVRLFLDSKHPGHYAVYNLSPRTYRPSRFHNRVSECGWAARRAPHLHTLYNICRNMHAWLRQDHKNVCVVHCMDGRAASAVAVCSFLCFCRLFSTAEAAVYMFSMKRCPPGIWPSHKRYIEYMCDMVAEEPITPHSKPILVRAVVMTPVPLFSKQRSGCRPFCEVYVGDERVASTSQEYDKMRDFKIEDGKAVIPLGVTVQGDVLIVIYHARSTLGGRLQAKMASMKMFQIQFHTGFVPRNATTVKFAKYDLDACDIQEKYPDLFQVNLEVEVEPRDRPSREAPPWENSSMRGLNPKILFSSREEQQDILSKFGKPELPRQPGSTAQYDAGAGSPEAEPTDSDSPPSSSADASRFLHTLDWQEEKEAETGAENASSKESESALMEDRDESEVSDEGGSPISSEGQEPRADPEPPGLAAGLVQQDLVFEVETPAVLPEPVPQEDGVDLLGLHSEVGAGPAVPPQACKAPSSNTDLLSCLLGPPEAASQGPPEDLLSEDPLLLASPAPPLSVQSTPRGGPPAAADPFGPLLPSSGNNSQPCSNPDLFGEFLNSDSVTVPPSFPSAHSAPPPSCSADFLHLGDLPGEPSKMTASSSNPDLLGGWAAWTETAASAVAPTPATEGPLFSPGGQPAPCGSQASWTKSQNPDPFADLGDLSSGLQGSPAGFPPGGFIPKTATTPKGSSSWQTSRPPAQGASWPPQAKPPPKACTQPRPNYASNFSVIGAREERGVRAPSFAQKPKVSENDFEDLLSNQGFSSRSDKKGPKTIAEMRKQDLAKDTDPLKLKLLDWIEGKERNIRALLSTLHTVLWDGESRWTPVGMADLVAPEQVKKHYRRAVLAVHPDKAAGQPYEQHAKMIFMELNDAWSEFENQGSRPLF

[2] = target: T2, KinomeScan kinase panel (Homo sapiens, UniProt Q16512); settings: PKN1, 10 µM; read-out: score (%)
T2 construct: purchased DiscoveRx (KinomeScan)

[3] = target: T3, KinomeScan kinase panel (Homo sapiens, UniProt P27361); settings: ERK1, 10 µM; read-out: score (%)
T3 construct: purchased DiscoveRx (KinomeScan)
T3 sequence (P27361 whole entry): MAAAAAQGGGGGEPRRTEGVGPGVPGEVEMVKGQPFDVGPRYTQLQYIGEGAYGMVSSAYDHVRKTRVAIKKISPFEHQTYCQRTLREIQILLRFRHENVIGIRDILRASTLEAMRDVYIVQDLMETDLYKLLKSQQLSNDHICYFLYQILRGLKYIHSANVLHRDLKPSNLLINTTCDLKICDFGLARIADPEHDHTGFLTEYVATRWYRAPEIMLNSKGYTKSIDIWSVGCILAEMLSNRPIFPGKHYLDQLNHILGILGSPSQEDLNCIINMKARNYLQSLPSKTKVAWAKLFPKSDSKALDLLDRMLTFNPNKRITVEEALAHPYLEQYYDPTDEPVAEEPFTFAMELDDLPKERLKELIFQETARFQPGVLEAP

[4] = target: T4, KinomeScan kinase panel (Homo sapiens, UniProt Q6DT37); settings: DMPK2, 10 µM; read-out: score (%)
T4 construct: purchased DiscoveRx (KinomeScan)
T4 sequence (Q6DT37 whole entry): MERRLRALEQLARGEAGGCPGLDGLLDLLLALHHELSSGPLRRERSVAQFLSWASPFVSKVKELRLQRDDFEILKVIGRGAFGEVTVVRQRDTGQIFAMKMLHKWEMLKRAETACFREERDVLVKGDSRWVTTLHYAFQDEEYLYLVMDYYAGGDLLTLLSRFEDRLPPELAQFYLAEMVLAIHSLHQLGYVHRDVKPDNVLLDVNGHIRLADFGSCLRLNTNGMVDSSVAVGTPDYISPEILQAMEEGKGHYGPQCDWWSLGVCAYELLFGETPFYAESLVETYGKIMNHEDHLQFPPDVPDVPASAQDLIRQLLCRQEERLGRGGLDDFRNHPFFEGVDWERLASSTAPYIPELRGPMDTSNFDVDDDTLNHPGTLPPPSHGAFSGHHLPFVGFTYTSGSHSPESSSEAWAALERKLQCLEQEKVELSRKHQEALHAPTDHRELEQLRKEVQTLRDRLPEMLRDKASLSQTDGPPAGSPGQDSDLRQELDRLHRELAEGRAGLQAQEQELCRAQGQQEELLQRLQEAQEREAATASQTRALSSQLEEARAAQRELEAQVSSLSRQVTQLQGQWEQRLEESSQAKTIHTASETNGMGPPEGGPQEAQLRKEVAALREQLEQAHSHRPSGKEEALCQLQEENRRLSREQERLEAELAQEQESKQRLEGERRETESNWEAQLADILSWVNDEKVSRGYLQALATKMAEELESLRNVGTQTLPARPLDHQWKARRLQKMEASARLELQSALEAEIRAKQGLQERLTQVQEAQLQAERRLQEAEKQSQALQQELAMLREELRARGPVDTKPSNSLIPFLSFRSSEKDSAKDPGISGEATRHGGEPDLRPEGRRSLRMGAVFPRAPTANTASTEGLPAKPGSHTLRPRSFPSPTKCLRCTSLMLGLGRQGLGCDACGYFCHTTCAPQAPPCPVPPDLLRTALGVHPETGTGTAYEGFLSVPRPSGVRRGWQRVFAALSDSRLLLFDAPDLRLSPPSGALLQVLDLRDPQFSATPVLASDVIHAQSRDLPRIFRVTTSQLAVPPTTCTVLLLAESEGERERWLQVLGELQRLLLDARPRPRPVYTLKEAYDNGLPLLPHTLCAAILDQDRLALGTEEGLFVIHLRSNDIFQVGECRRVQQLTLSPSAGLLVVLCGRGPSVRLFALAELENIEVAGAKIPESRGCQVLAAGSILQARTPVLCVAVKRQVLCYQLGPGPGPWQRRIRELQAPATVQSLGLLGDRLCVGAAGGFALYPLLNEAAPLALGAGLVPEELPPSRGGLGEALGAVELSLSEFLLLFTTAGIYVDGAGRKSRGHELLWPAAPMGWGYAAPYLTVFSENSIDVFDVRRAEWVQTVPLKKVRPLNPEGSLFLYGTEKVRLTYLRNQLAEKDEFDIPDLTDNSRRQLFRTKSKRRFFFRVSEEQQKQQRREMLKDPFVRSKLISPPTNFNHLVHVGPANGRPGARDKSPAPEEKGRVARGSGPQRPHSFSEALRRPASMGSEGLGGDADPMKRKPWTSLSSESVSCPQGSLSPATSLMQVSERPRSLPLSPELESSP

[5] = target: T5, KinomeScan kinase panel (Homo sapiens, UniProt P48730); settings: CSNK1D, 10 µM; read-out: score (%)
T5 construct: purchased DiscoveRx (KinomeScan)

[6] = target: T6, KinomeScan kinase panel (Homo sapiens, UniProt P0C1S8); settings: kinase WEE2; 10 µM; read-out: score (%)
T6 construct: purchased DiscoveRx (KinomeScan)

[7] = target: T7, KinomeScan kinase panel (Homo sapiens, UniProt Q8TDC3); settings: BRSK1, 10 µM; read-out: score (%)
T7 construct: purchased DiscoveRx (KinomeScan)
T7 sequence (Q8TDC3 1-778): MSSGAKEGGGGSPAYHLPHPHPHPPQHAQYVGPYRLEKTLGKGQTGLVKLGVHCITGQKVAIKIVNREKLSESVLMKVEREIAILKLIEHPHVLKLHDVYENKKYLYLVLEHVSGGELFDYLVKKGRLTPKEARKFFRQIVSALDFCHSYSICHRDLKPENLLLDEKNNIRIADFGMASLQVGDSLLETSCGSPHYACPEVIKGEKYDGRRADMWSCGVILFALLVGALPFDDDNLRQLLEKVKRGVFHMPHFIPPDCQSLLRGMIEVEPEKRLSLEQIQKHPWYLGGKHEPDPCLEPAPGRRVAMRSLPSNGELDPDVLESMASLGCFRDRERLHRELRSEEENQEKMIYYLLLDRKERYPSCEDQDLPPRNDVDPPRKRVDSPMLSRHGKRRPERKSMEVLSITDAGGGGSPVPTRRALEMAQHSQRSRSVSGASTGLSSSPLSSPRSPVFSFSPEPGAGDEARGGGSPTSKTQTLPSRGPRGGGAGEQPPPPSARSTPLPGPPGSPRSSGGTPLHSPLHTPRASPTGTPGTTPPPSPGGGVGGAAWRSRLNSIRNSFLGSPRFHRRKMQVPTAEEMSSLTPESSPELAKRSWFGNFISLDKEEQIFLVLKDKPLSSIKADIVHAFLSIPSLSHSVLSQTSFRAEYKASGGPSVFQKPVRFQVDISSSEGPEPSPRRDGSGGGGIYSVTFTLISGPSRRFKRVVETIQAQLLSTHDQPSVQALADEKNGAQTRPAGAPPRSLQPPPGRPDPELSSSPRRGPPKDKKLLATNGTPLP

[8] = target: T8, KinomeScan kinase panel (Homo sapiens, UniProt P22455); settings: FGFR4, 10 µM; read-out: score (%)
T8 construct: purchased DiscoveRx (KinomeScan)

[9] = target: T9, KinomeScan kinase panel (Homo sapiens, UniProt Q86V86); settings: PIM3, 10 µM; read-out: score (%)
T9 construct: purchased DiscoveRx (KinomeScan)

[10] = target: T10, KinomeScan kinase panel (Homo sapiens, UniProt P00533, DEL752-759)
T10 construct: purchased DiscoveRx (KinomeScan)
T10 sequence (P00533 with tags, fused parts or gaps DEL752-759): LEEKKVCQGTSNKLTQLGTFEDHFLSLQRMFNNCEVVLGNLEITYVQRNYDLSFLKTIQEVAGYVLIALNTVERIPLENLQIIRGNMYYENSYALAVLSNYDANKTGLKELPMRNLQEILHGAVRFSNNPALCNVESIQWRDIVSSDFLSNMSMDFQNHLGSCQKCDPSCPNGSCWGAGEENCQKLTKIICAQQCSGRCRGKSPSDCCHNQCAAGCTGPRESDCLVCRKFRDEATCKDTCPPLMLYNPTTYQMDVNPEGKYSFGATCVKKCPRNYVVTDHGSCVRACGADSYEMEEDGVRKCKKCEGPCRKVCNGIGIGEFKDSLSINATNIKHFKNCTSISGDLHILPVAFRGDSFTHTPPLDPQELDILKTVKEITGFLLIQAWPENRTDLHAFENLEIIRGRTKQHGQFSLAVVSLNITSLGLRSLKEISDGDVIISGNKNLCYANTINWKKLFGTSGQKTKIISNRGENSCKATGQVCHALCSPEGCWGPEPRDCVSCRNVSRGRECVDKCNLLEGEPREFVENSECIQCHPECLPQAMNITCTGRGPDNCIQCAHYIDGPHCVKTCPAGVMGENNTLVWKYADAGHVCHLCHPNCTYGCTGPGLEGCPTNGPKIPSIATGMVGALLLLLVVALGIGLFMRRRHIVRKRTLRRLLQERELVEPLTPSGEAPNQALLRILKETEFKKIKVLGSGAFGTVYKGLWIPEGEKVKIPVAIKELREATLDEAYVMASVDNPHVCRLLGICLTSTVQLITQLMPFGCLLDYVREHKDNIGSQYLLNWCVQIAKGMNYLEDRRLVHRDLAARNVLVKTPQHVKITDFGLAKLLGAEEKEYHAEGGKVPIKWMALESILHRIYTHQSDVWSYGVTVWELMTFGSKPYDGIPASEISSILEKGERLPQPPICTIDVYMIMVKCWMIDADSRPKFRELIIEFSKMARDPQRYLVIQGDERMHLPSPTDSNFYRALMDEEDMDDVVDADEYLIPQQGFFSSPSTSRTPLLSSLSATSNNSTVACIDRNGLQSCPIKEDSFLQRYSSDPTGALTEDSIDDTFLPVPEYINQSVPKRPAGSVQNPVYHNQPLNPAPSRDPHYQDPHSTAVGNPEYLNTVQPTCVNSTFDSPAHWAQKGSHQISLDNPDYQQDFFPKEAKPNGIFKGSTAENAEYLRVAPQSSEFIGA

[11] = target: T11, KinomeScan kinase panel (Homo sapiens, UniProt P80192); settings: MLK1, 10 µM; read-out: score (%)
T11 construct: purchased DiscoveRx (KinomeScan)
T11 sequence (P80192 whole entry): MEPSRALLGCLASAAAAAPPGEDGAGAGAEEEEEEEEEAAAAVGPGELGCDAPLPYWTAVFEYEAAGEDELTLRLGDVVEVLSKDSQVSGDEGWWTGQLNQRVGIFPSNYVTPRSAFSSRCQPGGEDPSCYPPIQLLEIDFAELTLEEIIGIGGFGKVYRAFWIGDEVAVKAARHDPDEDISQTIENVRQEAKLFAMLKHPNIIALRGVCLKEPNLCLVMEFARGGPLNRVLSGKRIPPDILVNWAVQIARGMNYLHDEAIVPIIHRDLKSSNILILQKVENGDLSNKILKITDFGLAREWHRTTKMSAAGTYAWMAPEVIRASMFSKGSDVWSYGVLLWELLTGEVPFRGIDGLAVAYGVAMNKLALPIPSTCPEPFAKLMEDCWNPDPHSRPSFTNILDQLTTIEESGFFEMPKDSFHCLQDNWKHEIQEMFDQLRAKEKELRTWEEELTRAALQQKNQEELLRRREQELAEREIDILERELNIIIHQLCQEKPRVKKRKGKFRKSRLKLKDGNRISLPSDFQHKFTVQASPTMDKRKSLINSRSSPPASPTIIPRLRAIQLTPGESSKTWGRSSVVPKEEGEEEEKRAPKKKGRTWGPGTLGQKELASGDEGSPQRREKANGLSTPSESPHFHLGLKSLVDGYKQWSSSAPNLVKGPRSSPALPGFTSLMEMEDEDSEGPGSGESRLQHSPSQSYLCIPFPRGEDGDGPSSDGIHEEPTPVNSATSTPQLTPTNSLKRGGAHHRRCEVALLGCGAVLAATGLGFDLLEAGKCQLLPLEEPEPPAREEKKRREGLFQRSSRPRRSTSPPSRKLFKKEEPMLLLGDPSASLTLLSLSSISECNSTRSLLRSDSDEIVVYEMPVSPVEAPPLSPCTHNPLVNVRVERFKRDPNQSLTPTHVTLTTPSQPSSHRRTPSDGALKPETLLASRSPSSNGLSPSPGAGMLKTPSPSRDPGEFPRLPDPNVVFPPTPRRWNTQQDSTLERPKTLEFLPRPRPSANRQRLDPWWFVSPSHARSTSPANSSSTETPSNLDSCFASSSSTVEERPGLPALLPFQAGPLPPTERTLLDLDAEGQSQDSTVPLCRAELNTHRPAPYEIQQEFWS

[12] = target: T12, KinomeScan kinase panel (Homo sapiens, UniProt P06239); settings: LCK, 10 µM; read-out: score (%)
T12 construct: purchased DiscoveRx (KinomeScan)

[13] = target: T13, KinomeScan kinase panel (Homo sapiens, UniProt Q13131); settings: AMPK-alpha1, 10 µM; read-out: score (%)
T13 construct: purchased DiscoveRx (KinomeScan)
T13 sequence (Q13131 whole entry): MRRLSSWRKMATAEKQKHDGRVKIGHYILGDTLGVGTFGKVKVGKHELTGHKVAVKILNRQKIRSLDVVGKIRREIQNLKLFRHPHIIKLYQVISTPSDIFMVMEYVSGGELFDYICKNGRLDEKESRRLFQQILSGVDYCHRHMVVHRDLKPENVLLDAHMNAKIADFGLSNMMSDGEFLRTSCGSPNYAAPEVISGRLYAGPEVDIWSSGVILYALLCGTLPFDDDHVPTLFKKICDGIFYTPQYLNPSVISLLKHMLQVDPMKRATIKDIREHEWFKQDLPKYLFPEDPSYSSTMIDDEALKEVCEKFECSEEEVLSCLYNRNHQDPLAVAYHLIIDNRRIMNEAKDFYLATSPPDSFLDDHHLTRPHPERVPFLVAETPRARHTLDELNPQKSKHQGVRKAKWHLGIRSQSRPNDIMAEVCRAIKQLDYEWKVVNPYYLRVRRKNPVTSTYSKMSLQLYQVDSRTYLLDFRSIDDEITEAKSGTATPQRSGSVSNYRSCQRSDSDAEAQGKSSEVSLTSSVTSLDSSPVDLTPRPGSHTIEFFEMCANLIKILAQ

| Compound | remaining binding at 10 µM [1] | remaining binding at 10 µM [2] | remaining binding at 10 µM [3] | remaining binding at 10 µM [4] | remaining binding at 10 µM [5] | remaining binding at 10 µM [6] | remaining binding at 10 µM [7] | remaining binding at 10 µM [8] | remaining binding at 10 µM [9] | score (%) [10] | remaining binding at 10 µM [11] | remaining binding at 10 µM [12] | remaining binding at 10 µM [13] | score (%) ([10]; EGFR(S752-I759del), 10 µM) |
| --- | --- | --- | --- | --- | --- | --- | --- | --- | --- | --- | --- | --- | --- | --- |
| CCN1CCN(Cc2ccc(NC(=O)c3ccc(C)c(NC(=O)c4cncc(-c5cccs5)c4)c3)cc2C(F)(F)F)CC1 [ALW-II-41-27] | 1.6% | > 30% | > 30% | > 30% | 5% | > 30% | > 30% | 8.7% | > 30% | 3% | > 30% | 0.2% | > 30% |  |
| CCN1CCN(Cc2ccc(NC(=O)c3ccc(C)c(/C=C/c4cnc5[nH]ccc5c4Cl)c3)cc2C(F)(F)F)CC1 [HG-6-63-01, (E)-3-(2-(4-chloro-1H-pyrrolo[2,3-b]pyridin-5-yl)vinyl)-N-(4-((4-ethylpiperazin-1-yl)methyl)-3-(trifluoromethyl)phenyl)-4-methylbenzamide] | 4.3% | > 30% | > 30% | 14% | > 30% | 15% | > 30% | 0.2% | > 30% |  | 0.6% | 0.1% | 18% | 0% |
| CCN1CCN(Cc2ccc(NC(=O)c3ccc(C)c(C#Cc4cccnc4)c3)cc2C(F)(F)F)CC1 [XMD15-44] | 7.4% | 85% | > 30% | > 30% | 29% | 100% | > 30% | 0% | 100% |  | > 30% | 0.05% | 1.2% | 0.9% |
